Experimental data as given in ChEMBL document CHEMBL1201862, “PubChem BioAssay data set” (2004).
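Protocol summary: plate cells (96-well), add compound at 5 concentrations, incubate 48 h, interpolate endpoints linearly. Here, GI50 denotes the concentration required for 50% inhibition of growth.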 Active and inactive are the calls of the source. Rule as the data show it: active = GI50 up to about 1.1 µM and inactive = higher.

What was measured:
Test in all cases: NCI anticancer screen, dose series, 48 h
SK-OV-3 = test system: SK-OV-3
NCI-H23 = test system: NCI-H23
CCRF-CEM = test system: CCRF-CEM
NCI/ADR-RES = test system: NCI/ADR-RES
SN12C = test system: SN12C
HCT-116 = test system: HCT-116
HCC 2998 = test system: HCC 2998
HOP-62 = test system: HOP-62
M14 = test system: M14
LOX IMVI = test system: LOX IMVI
HCT-15 = test system: HCT-15
RXF 393 = test system: RXF 393
COLO 205 = test system: COLO 205
NCI-H226 = test system: NCI-H226
U-251 = test system: U-251
EKVX = test system: EKVX
TK-10 = test system: TK-10
UACC-62 = test system: UACC-62
HT-29 = test system: HT-29
A498 = test system: A498

| SMILES | GI50 (SK-OV-3) | GI50 (NCI-H23) | GI50 (CCRF-CEM) | GI50 (NCI/ADR-RES) | GI50 (SN12C) | GI50 (HCT-116) | GI50 (HCC 2998) | GI50 (HOP-62) | GI50 (M14) | GI50 (LOX IMVI) | GI50 (HCT-15) [µM] | GI50 (RXF 393) | GI50 (COLO 205) | GI50 (NCI-H226) | GI50 (U-251) | GI50 (EKVX) | GI50 (TK-10) | GI50 (UACC-62) | GI50 (HT-29) | GI50 (A498) |
| --- | --- | --- | --- | --- | --- | --- | --- | --- | --- | --- | --- | --- | --- | --- | --- | --- | --- | --- | --- | --- |
| CC1(C)CN=C(Nc2ccc(F)c(F)c2)S1 | > 100 µM (inactive) | > 100 µM (inactive) | > 100 µM (inactive) | > 100 µM (inactive) | > 100 µM (inactive) | > 100 µM (inactive) | > 100 µM (inactive) | > 100 µM (inactive) | > 100 µM (inactive) | > 100 µM (inactive) | > 100 | > 100 µM (inactive) | > 100 µM (inactive) | > 100 µM (inactive) | > 100 µM (inactive) | > 100 µM (inactive) | > 100 µM (inactive) | > 100 µM (inactive) | > 100 µM (inactive) | – |
| Cc1cnc2sn(-c3ccc(Br)cc3)c(=O)c2c1 | 41.6 µM (inactive) | 33 µM (inactive) | 24.4 µM (inactive) | 70.1 µM (inactive) | 59.6 µM (inactive) | 42.8 µM (inactive) | 22.7 µM (inactive) | 27.7 µM (inactive) | 41.2 µM (inactive) | 23.3 µM (inactive) | 26.6 | – | 26.8 µM (inactive) | 52 µM (inactive) | 27.1 µM (inactive) | 41.2 µM (inactive) | 93.5 µM (inactive) | 33.4 µM (inactive) | 28.9 µM (inactive) | – |
| CN1CCN(c2ccc3nc(C4=C(O)C(=O)c5c(nc(CO)n5C)C4=O)[nH]c3n2)CC1 | > 100 µM (inactive) | > 100 µM (inactive) | > 100 µM (inactive) | > 100 µM (inactive) | > 100 µM (inactive) | > 100 µM (inactive) | > 100 µM (inactive) | > 100 µM (inactive) | > 100 µM (inactive) | > 100 µM (inactive) | > 100 | 15.8 µM (inactive) | > 100 µM (inactive) | > 100 µM (inactive) | 76.2 µM (inactive) | > 100 µM (inactive) | – | 74.3 µM (inactive) | > 100 µM (inactive) | – |
| O=C1CCCC(=O)N1n1c(Cc2ccc(Cl)cc2)n[nH]c1=O | > 100 µM (inactive) | > 100 µM (inactive) | > 100 µM (inactive) | > 100 µM (inactive) | > 100 µM (inactive) | > 100 µM (inactive) | > 100 µM (inactive) | > 100 µM (inactive) | > 100 µM (inactive) | > 100 µM (inactive) | > 100 | > 100 µM (inactive) | > 100 µM (inactive) | > 100 µM (inactive) | > 100 µM (inactive) | > 100 µM (inactive) | > 100 µM (inactive) | > 100 µM (inactive) | > 100 µM (inactive) | – |
| Cn1c(N)c(/N=N/c2ccc(S(N)(=O)=O)cc2)c(=O)n(C)c1=O | 79.8 µM (inactive) | > 100 µM (inactive) | > 100 µM (inactive) | > 100 µM (inactive) | > 100 µM (inactive) | > 100 µM (inactive) | – | 40.9 µM (inactive) | > 100 µM (inactive) | > 100 µM (inactive) | > 100 | > 100 µM (inactive) | > 100 µM (inactive) | > 100 µM (inactive) | 45.9 µM (inactive) | > 100 µM (inactive) | > 100 µM (inactive) | 91.8 µM (inactive) | > 100 µM (inactive) | > 100 µM (inactive) |
| SCc1ccc(CS)s1 | > 100 µM (inactive) | > 100 µM (inactive) | > 100 µM (inactive) | > 100 µM (inactive) | > 100 µM (inactive) | > 100 µM (inactive) | > 100 µM (inactive) | > 100 µM (inactive) | > 100 µM (inactive) | > 100 µM (inactive) | > 100 | – | > 100 µM (inactive) | – | > 100 µM (inactive) | > 100 µM (inactive) | > 100 µM (inactive) | > 100 µM (inactive) | > 100 µM (inactive) | – |
